Measured values reported in the supplement of paper PMC5412046.
Counter-ions that a name gives are not always drawn.

What was measured:
[1] = test system: SB.mhdgc-1; assay: viability at highest tested concentration (MAXR) relative to DMSO; higher = less cytotoxic; details: SB.mhdgc-1 (hereditary c.1380delA CDH1 gastric cancer)
Outline: (§1)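 Compound in DMSO was pinned (23 nL) at 11 threefold-diluted concentrations into wells containing 500 patient-derived gastric cancer cells, hereditary or sporadic, in 5 μL medium per 1536 well. Cells were incubated for 48 h, then exposed to CellTiter-Glo for 30 min at room temperature. Luminescence was measured on a ViewLux. The values are viability normalised to DMSO, either at the highest concentration or as trapezoidal area under the curve.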

[2] = test system: SB.msgc-1; assay: as above; details: SB.msgc-1 (sporadic gastric cancer)
Outline: as §1

[3] = test system: SB.mhdgc-1; assay: area under the dose-response curve of % viability (trapezoidal, 11 doses) (% viability x log10 concentration); higher = less cytotoxic; details: SB.mhdgc-1 (hereditary c.1380delA CDH1 gastric cancer)
Outline: as §1

[4] = test system: SB.msgc-1; assay: as above; details: SB.msgc-1 (sporadic gastric cancer)
Outline: as §1

SMILES	viability [1] [%]	viability [2] [%]	area under the dose-response curve [3]	area under the dose-response curve [4]
COCCn1c2c([n+](Cc3cnccn3)c1C)C(=O)c1ccccc1C2=O [Sepantronium bromide] (top concentration 46.0829 µM)	2.42	0.172	236	183
CC(C)CNc1ccnc(NCc2csc(-c3ccccc3)n2)n1 [KHS101] (top concentration 46.0829 µM)	10.6	34.8	438	449
Cc1cc(-c2ccc(CC(=O)Nc3ccc(-c4cccnc4)cc3)cc2)ccn1 [Wnt-C59] (top concentration 46.0829 µM)	49.6	49	497	501
O=c1oc2c(O)c(O)cc3c(=O)oc4c(O)c(O)cc1c4c23 [Ellagic acid] (top concentration 46.0829 µM)	67.8	80.7	533	565
CNC[C@H](O)c1ccc(O)c(O)c1 [Epinephrine] (top concentration 92.1659 µM)	20.7	78.5	484	514
C[C@@H](NC1=CC=CC=C1C(O)=O)C/2=C/C(=C\N3C(=O)/C=C(\N=C23)N4CCOCC4)C [AZD-6482] (top concentration 92.1659 µM)	18.2	35.5	335	423
Cc1nc(NC(=O)N2CCC[C@H]2C(N)=O)sc1-c1csc(C(C)(C)C)n1 [A-66] (top concentration 46.0829 µM)	33.3	37.4	377	352
CCNC(=O)CCC/C=C\C[C@@H]1[C@@H](/C=C/C(O)CCc2ccccc2)[C@@H](O)C[C@@H]1O (stereo partly drawn) [Bimatoprost] (top concentration 46.0829 µM)	62.2	95.7	559	552
N#Cc1ccc(Oc2ccc3c(c2)COB3O)cc1 [AN2728] (top concentration 46.0829 µM)	59.1	74.8	518	581
Nc1nc(F)nc2c1ncn2[C@@H]1O[C@H](COP(=O)(O)O)[C@@H](O)[C@@H]1O [Fludarabine phosphate] (top concentration 46.0829 µM)	35.8	47.7	490	524
Nc1ccc(C(=O)c2cc3c(ccc4ccccc43)[nH]2)cc1 [IPFK2] (top concentration 46.0829 µM)	16.9	27.4	506	431
Cl.c1cnc2cc3c(cc2n1)C1CNCC3C1 [Varenicline tartrate] (top concentration 46.0829 µM)	84.2	93.8	551	529
CC(N[C@H]1C[C@@H]1c1ccccc1)c1ccc2c(c1)OCCO2 (stereo partly drawn) [LSD1-C76] (top concentration 46.0829 µM)	126	99.3	606	513
CN(Cc1cnc2nc(N)nc(N)c2n1)c1ccc(C(=O)N[C@@H](CCC(=O)O)C(=O)O)cc1 [Methotrexate] (top concentration 46.0829 µM)	61.7	37.8	440	348
Oc1cc(-c2nc(-c3ccccc3)[nH]c2-c2ccncc2)ccc1Cl (top concentration 46.0829 µM)	19	70.2	384	488
O=C(CO)N1CCC(c2n[nH]c(-c3ccc(Cl)cc3)c2-c2ccncn2)CC1 [SD-06] (top concentration 46.0829 µM)	104	88.2	539	518
O=C(NOCC1CC1)c1ccc(F)c(F)c1Nc1ccc(I)cc1Cl (top concentration 46.0829 µM)	5.2	31.4	380	509
CN(C)c1cc(NC(=O)CNC(C)(C)C)c(O)c2c1C[C@H]1C[C@H]3[C@H](N(C)C)C(O)=C(C(N)=O)C(=O)[C@@]3(O)C(O)=C1C2=O [Tigecycline] (top concentration 46.0829 µM)	99.4	98.6	578	525
S=C1N\C=N/C2=C1[NH]C=N2 [6-mercaptopurine] (top concentration 46.0829 µM)	101	35.8	513	458
O=C/1NC(=O)C(=C1C2=CN=C3C=CC=C[N]23)/C4=C[N]5CCN(CC6=C5C4=CC=C6)C(=O)N7CCOCC7 [GSK3 Inhibitor] (top concentration 46.0829 µM)	32.5	41.1	391	442
COc1cc2nc(N3CCN(C(=O)C4COc5ccccc5O4)CC3)nc(N)c2cc1OC (stereo not drawn) [Doxazosin mesylate] (top concentration 46.0829 µM)	55.6	104	569	568
CCC(=O)N1CCN(CC1)C2=C(C=C(C=C2)N3C(=O)\C=C/C4=C3C5=CC(=CC=C5N=C4)C6=CN=C7C=CC=CC7=C6)C(F)(F)F [Torin-1] (top concentration 46.0829 µM)	28.6	52.9	299	426
